Reference: ChEMBL document CHEMBL1158852, “A new sesquiterpene ester from Celastrus orbiculatus reversing multidrug resistance in cancer cells” (J Nat Prod, 1998)

Assays:
[1] = Cytotoxicity against human KB-3-1 cells by SRB assay; format: functional, cell-based
[2] = Cytotoxicity against drug-resistant human KBV1 cells by SRB assay; format: functional, cell-based; details: KB-V1
[3] = Cytotoxicity against drug-resistant human KBV1 cells in presence of 0.1 uM Vinblastine by SRB assay; format: functional, cell-based; details: KB-V1
[4] = tested on: MCF7; test: Cytotoxicity against human MCF7 cells by SRB assay; format: functional, cell-based
[5] = Cytotoxicity against drug-resistant human MCF7/ADR cells by SRB assay; format: functional, cell-based; details: NCI/ADR-RES
[6] = Cytotoxicity against drug-resistant human MCF7/ADR cells in presence of 10 uM Adriamycin by SRB assay; format: functional, cell-based; details: NCI/ADR-RES
[7] = tested on: SNB-19; test: Cytotoxicity against human SNB19 cells by SRB assay; format: functional, cell-based
[8] = tested on: SK-OV-3; test: Cytotoxicity against human SKOV3 cells by SRB assay; format: functional, cell-based
[9] = tested on: NCI-H23; test: Cytotoxicity against human NCI-H23 cells by SRB assay; format: functional, cell-based
[10] = tested on: UACC-62; test: Cytotoxicity against human UACC62 cells by SRB assay; format: functional, cell-based
[11] = tested on: KM12; test: Cytotoxicity against human KM12 cells by SRB assay; format: functional, cell-based
[12] = Cytotoxicity against human MOLT cells by SRB assay; format: functional, cell-based
[13] = tested on: KBV1; test: Inhibition of P-gp-mediated multidrug resistance assessed as ratio of Adriamycin IC50 for drug-resistant human KBV1 cells to drug-sensitive human KB-3-1 cells at 3 uM; format: cell-based
[14] = tested on: KBV1; test: Inhibition of P-gp-mediated multidrug resistance assessed as ratio of Vinblastine IC50 for drug-resistant human KBV1 cells to drug-sensitive human KB-3-1 cells at 3 uM; format: cell-based
[15] = tested on: KBV1; test: Inhibition of P-gp-mediated multidrug resistance assessed as ratio of Paclitaxel IC50 for drug-resistant human KBV1 cells to drug-sensitive human KB-3-1 cells at 3 uM; format: cell-based

Structure (SMILES)	IC50 [1] [µM]	IC50 [2] [µM]	IC50 [3] [nM]	IC50 [4] [µM]	IC50 [5] [µM]	IC50 [6] [nM]	IC50 [7] [µM]	IC50 [8] [µM]	IC50 [9] [µM]	IC50 [10] [µM]	IC50 [11] [µM]	IC50 [12] [µM]	Ratio IC50 [13]	Ratio IC50 [14]	Ratio IC50 [15]
CC(=O)O[C@H]1CC[C@@H](C)[C@]23OC(C)(C)[C@H](C[C@H](OC(=O)c4ccccc4)[C@]12C)[C@H]3OC(=O)c1ccccc1	9.26	13	1360	10.8	14.4	1390	18.3	19.3	16.8	12.9	14.9	3.05	98.8	63.9	37.1
CC(=O)O[C@H]1C[C@@H](C)[C@]23OC(C)(C)[C@H](C[C@H](OC(=O)c4ccccc4)[C@]2(C)[C@H]1OC(C)=O)[C@H]3OC(=O)c1ccccc1 [ORBICULIN A]	49	64.9	800	53.2	61.9	1150	40.8	48.4	41.9	38.8	38.6	7.33			
